Key:
[1] = biological target: Serine/threonine-protein kinase mTOR (Homo sapiens, UniProt P42345); assay: Inhibition of mTOR
[2] = Selectivity ratio of IC50 for PI3Kalpha to IC50 for mTOR
LNCaP = assay: Antiproliferative activity against human LNCAP cells; assay type: functional, cell-based
[3] = biological target: Phosphatidylinositol 4,5-bisphosphate 3-kinase catalytic subunit alpha isoform (Homo sapiens, UniProt P42336); assay: Inhibition of PI3Kalpha
Sequence of Phosphatidylinositol 4,5-bisphosphate 3-kinase catalytic subunit alpha isoform (P42336 whole entry, canonical isoform): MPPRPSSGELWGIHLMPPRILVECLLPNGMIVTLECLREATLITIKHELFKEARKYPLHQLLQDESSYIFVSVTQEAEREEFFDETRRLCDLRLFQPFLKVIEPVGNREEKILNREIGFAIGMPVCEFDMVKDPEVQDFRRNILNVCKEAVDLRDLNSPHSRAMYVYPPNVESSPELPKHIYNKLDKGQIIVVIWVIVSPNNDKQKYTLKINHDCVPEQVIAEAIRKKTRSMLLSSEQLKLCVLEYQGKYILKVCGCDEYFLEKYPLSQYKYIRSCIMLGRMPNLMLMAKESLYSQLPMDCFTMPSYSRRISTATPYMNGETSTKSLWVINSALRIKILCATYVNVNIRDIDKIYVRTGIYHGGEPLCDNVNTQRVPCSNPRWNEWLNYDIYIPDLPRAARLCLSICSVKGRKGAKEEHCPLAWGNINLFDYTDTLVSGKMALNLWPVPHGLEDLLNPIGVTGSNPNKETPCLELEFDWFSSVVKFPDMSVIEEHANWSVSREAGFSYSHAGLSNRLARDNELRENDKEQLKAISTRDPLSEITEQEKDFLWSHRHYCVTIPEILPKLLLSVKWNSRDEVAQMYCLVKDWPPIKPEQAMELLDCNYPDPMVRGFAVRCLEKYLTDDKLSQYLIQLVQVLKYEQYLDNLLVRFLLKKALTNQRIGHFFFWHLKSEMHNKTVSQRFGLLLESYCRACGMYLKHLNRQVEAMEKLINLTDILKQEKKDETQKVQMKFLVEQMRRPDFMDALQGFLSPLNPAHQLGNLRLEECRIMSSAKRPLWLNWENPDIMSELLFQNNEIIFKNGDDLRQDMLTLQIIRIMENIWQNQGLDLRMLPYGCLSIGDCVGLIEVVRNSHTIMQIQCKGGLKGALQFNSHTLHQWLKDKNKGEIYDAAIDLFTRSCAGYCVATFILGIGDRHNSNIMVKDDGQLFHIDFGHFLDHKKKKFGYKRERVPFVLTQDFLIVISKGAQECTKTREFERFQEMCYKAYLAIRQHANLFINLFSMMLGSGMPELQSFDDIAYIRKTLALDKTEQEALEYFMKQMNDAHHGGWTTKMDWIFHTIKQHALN

SMILES | IC50 [1] [nM] | Ratio IC50 [2] | IC50 (LNCaP) [nM] | IC50 [3] [nM]
CN1CCN(C(=O)C2CCN(c3ccnc4c3c(/C=C3\Oc5ccc(NC(=O)Nc6cccnc6)cc5C3=O)cn4C)CC2)CC1 | 70 | 65.7 | 330 | –
CN(C)C1CCN(C(=O)C2CCN(c3ccnc4c3c(/C=C3\Oc5ccc(NC(=O)Nc6cccnc6)cc5C3=O)cn4C)CC2)C1 (configuration not stated) | 11 | – | 2300 | > 10000
Cn1cc(/C=C2\Oc3ccc(NC(=O)Nc4cccnc4)cc3C2=O)c2c(N3CCC(C(=O)N4CC5CCC(C4)O5)CC3)ccnc21 | – | – | 90 | –
CN(Cc1ccncc1)C(=O)C1CCN(c2ccnc3c2c(/C=C2\Oc4ccc(NC(=O)Nc5cccnc5)cc4C2=O)cn3C)CC1 | – | 132 | 23 | –
Cn1cc(/C=C2\Oc3ccc(NC(=O)Nc4cccnc4)cc3C2=O)c2c(N3CCC(C(=O)N4CCCCC4)CC3)ccnc21 | – | 12.6 | 18 | –
Cn1cc(/C=C2\Oc3ccc(NC(=O)Nc4cccnc4)cc3C2=O)c2c(N3CCC(C(=O)NCc4cccnc4)CC3)ccnc21 | 9 | 450 | 60000 | 4040
Cn1cc(/C=C2\Oc3ccc(NC(=O)Nc4cccnc4)cc3C2=O)c2c(N3CCC(C(=O)N4CCOCC4)CC3)ccnc21 | – | 148 | 3200 | 2660
CN(C(=O)C1CCN(c2ccnc3c2c(/C=C2\Oc4ccc(NC(=O)Nc5cccnc5)cc4C2=O)cn3C)CC1)c1cccnc1 | – | – | 300 | –
Cn1cc(/C=C2\Oc3ccc(NC(=O)Nc4cccnc4)cc3C2=O)c2c(N3CCC(C(=O)N4CCCC4)CC3)ccnc21 | – | 111 | 12 | –
Cn1cc(/C=C2\Oc3ccc(NC(=O)Nc4cccnc4)cc3C2=O)c2c(N3C4CCC3COC4)ccnc21 | – | 3 | 6 | 128
CN(C)CCNC(=O)Nc1ccc2c(c1)C(=O)/C(=C/c1cn(C)c3nccc(N4CC5CCC(C4)O5)c13)O2 | – | – | 60 | –
Cn1cc(/C=C2\Oc3ccc(NC(=O)Nc4cccnc4)cc3C2=O)c2c(N3CCC(C(=O)N4C5CCC4COC5)CC3)ccnc21 | – | – | 200 | –
Cn1cc(/C=C2\Oc3ccc(NC(=O)Nc4ccc(N5CCOCC5)nc4)cc3C2=O)c2c(N3CC4CCC(C3)O4)ccnc21 | – | 76.6 | > 60000 | –
CN(Cc1cccnc1)C(=O)C1CCN(c2ccnc3c2c(/C=C2\Oc4ccc(NC(=O)Nc5cccnc5)cc4C2=O)cn3C)CC1 | – | – | 3200 | –

Results, then the compound that gave them:

IC50 [1] [nM] | Ratio IC50 [2] | IC50 (LNCaP) [nM] | IC50 [3] [nM] | SMILES
– | – | 140 | – | CNC(=O)Nc1ccc2c(c1)C(=O)/C(=C/c1cn(C)c3nccc(N4CC5CCC(C4)O5)c13)O2
– | – | 1.8 | 249 | Cn1cc(/C=C2\Oc3ccc(NC(=O)Nc4cccnc4)cc3C2=O)c2c(N3CC4CCC3CO4)ccnc21 (configuration not stated)
– | – | 60000 | – | CNC(=O)Nc1ccc2c(c1)C(=O)/C(=C/c1cn(C)c3nccc(-c4ccccc4)c13)O2
– | 25.4 | 200 | – | Cn1cc(/C=C2\Oc3cccc(O)c3C2=O)c2c(-c3ccccc3)ccnc21
– | 3.4 | 280 | – | Cn1cc(/C=C2\Oc3ccc(NC(=O)Nc4ccccc4)cc3C2=O)c2c(N3CC4CCC(C3)O4)ccnc21
– | – | 80 | – | CN(C)C(=O)C1CCN(c2ccnc3c2c(/C=C2\Oc4ccc(NC(=O)Nc5cccnc5)cc4C2=O)cn3C)CC1
– | – | 15 | – | Cn1cc(/C=C2\Oc3ccc(NC(=O)Nc4cccnc4)cc3C2=O)c2c(N3CC4CCC(C3)O4)ccnc21
102 | – | 20 | > 10000 | CN(Cc1ccccc1)C(=O)C1CCN(c2ccnc3c2c(/C=C2\Oc4ccc(NC(=O)Nc5cccnc5)cc4C2=O)cn3C)CC1
– | – | 50 | – | CCN(CC)C(=O)C1CCN(c2ccnc3c2c(/C=C2\Oc4ccc(NC(=O)Nc5cccnc5)cc4C2=O)cn3C)CC1
– | – | > 60000 | – | CNC(=O)Nc1cccc2c1C(=O)/C(=C/c1cn(C)c3nccc(-c4ccccc4)c13)O2
– | – | 50 | – | Cn1cc(/C=C2\Oc3ccc(NC(=O)Nc4cccnc4)cc3C2=O)c2c(N3CCOCC3)ccnc21
– | – | 40 | – | CN(Cc1ccccn1)C(=O)C1CCN(c2ccnc3c2c(/C=C2\Oc4ccc(NC(=O)Nc5cccnc5)cc4C2=O)cn3C)CC1
– | – | 2800 | – | CCNC(=O)Nc1ccc2c(c1)C(=O)/C(=C/c1cn(C)c3nccc(N4CC5CCC(C4)O5)c13)O2

Reference: ChEMBL document CHEMBL1156282, “4-Substituted-7-azaindoles bearing a ureidobenzofuranone moiety as potent and selective, ATP-competitive inhibitors of the mammalian target of rapamycin (mTOR)” (Bioorg Med Chem Lett, 2010)
